The values that follow come from patent US20120213789A1, “New Molecular Target for Treatment of Cancer” (priority 2001, published 2012).

For assay [1], the system named is ML-SV40 Prostat Cell Line. The assay is described as follows: Dual label UC28 C/AnnexinV flow cytometry after SPB treatment. It counts as cell-based. Particulars: for Total AnnexV / Total UC28C: 72 hours, ML-SV40, UC28-GAR-CY5/AnnexV-FITC. The procedure: (§1) Cells were grown to 70-80% confluence at 37° C. and 5% CO2 in T-75 tissue culture plastic flasks. SPB stock solution was added to final concentrations of 0.5, 5.0, 10.0, and 25.0 mM in appropriate fresh media to the cell cultures. Cells were incubated at 37° C. and 5% CO2 for 72 hours. Attached cells were then harvested using a solution of 0.05% trypsin and 0.53 mM EDTA (Invitrogen Corp.). Attached cells were then pooled with any the detached cells and washed with PBS pH 7.2. Cell numbers and percent viability were determined using Trypan blue dye exclusion and a hemacytometer. At the time of their use in an experiment the viability was usually about 85% for untreated cells and a range of about 15-70% for treated cells, with the lower viabilities found at higher SPB concentrations (Thompson C, 1995; Cory et al., 1998; van Engeland et al., 1996).
VO1 Apoptosis Detection Kit contains: (1) Fluorocein-isothiocyante (FITC) conjugated AnnexinV [AnnexinV01] 1 ml (2) Propidium Iodide [Annex-Pi] 2.0 ml (3) 4× Binding Buffer [Annex-B] 20.0 ml. Vendor is CalTag Laboratories, Inc., 1849 Bayshore Boulevard #200 Burlingame, Calif. 94010.
(§2) UC28(C) is 2.14 mg/ml rabbit polyclonal aliquot directed against the inventors' UC28 patented biomarker developed by UCor R&D gene discovery program. The Antibody was produced against a twenty amino acid (AA) synthetic peptide from the predicted AA sequence (AA 21-37) UCor, Inc. 840 Research Parkway Oklahoma City, Okla. 73104.
(§3) Goat Anti-Rabbit CY5 polyclonal Fluorchrome was used as the secondary conjugate for UC28 C rabbit polyclonal antibody and a background control for UC28 C polyclonal. Vendor is Jackson ImmunoResearch Laboratories, Inc. 872 West Baltimore Pike, P.O. Box 9 West Grove, Pa. 19390.
MsIgG-FITC mouse conjugated-FITC was used for background control for AnnexinV01. Vendor is Becicman Coulter, Inc. Diagnostic Division, 11800 SW 147th Ave. M/S 42-003, P.O. Box 169015, Miami, Floridia 33116-9015.
A Coulter Elite engineered with a triple laser system was used to analyze all samples. Coulter control beads were used to align lasers for the dual label testing of cell samples. Laser alignment was required for both the Argon (488 nm line) laser and HeNe (633 nm line) laser. These alignments were performed prior to all measurements with the Argon laser (488 nm line) using fluorophores for FITC, RPE, PI and the HeNe laser (633 nm line) for the Cy5 fluorophores being used for the experiments described below. The histographs, voltage settings, gates, color compensation, and pressures were established prior to all sample processing. […]
UC28 and Annexin V were co-labeled in the three cell lines to assess the induction of UC28 by SPB and its correlation to the induction of apoptosis. […] It may be noted that in previously published experiments, AnnexinV and PI were run in combination with several prostate cancer cell lines, one of which was LNCaP, but not with C4-2B or MLC-SV40. It was determined that they produced similar dose-response kinetics when exposed to 0.5-25 mM of SPB for 72 hours (Ng et al., 1989). That is, as the dose of SPB increased, so did the membrane perturbation events measured by these two methods.
(Flow cytometry measures light scatter and fluorescence of single cells or particles in a stream.)

For assay [2], the system named is LNCaP Prostate Cell Line. Description: Dual label UROC28/Bcl-2 flow cytometry after SPB treatment. It counts as cell-based, human. The protocol:
as §1, §2, §3
Bc12 IgG1 kappa-FITC isomer 1 is a purified monoclonal mouse specific for Bc1-2 protein. Vendor is Dalco Corporation 6392 Via Real, Carpinteria, Calif. 93013 USA.
MsIgG1 kappa-FITC isomer 1 is a purified isotype specific control for Bc1-2 monoclonal antibody. Vendor is Dako Corporation 6392 Via Real, Carpinteria, Calif. 93013 USA.
Cytofix/Cytoperm™ ICit enables fixation and permeabilization of cells prior to staining with fluorochrome-conjugated antibodies. Vendor is BD-PharMingen, 10975 Torreyana Road, San Diego, Calif. 92121-1106.
A Coulter Elite engineered with a triple laser system was used to analyze all samples. Coulter control beads were used to align lasers for the dual label testing of cell samples. Laser alignment was required for both the Argon (488 nm line) laser and HeNe (633 nm line) laser. These alignments were performed prior to all measurements with the Argon laser (488 nm line) using fluorophores for FITC, RPE, PI and the HeNe laser (633 nm line) for the Cy5 fluorophores being used for the experiments described below. The histographs, voltage settings, gates, color compensation, and pressures were established prior to all sample processing.
(a) Tissue culture cells (MLC-SV40, LNCaP and C 4-2B) were aliquoted at concentration of 1×10^6 per teach 12×75 mm polystyrene tube. […]

Setting [3] is: SPB, MLC-SV40, summary of Table 5.

In the case of `O=C([O-])CCCc1ccccc1.[Na+]` [SPB, 4-Phenylbutyric Acid, Sodium Salt], the “Total AnnexV” value in assay [1] (0.5 mM SPB) is 11.4%; in assay [1] (5.0 mM SPB), 90.2%; in assay [1] (10 mM SPB), 95.7%; in assay [1] (25 mM SPB) it was 90.7%. Further, the “Total UC28C” value in assay [1] (0.5 mM SPB) worked out at 8.6%; in assay [1] (5.0 mM SPB), 6.8%; in assay [1] (10 mM SPB) it was 6.8%; in assay [1] (25 mM SPB) it was 9.3%. In addition, in assay [1] (setting [3]), the UC28 up regulation result is on record as “not”. Also, the induction of apoptosis result in assay [1] (setting [3]) is recorded as “induced”. For the same compound, the entries for the “Total Bcl-2” value in assay [2] (5.0 mM SPB) and in assay [2] (10 mM SPB) were 23.8% and 15.6%, respectively. Also, the “Total UC2BC” value in assay [2] (5.0 mM SPB) is 87.7%; in assay [2] (10 mM SPB), 83.0%.
